Test results published in PubChem BioAssay (NCI).
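Test compounds were applied to cells in 96-well plates for 48 hours at 5 doses. At the GI50, growth is halved. At the TGI there is no net growth.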

Experiments:
Assay in all cases: DTP human tumour cell line panel, 48 h
MALME-3M melanoma = tested on: MALME-3M melanoma
K-562 leukemia = tested on: K-562 leukemia
HL-60(TB) leukemia = tested on: HL-60(TB) leukemia
KM12 colon = tested on: KM12 colon
OVCAR-3 ovarian = tested on: OVCAR-3 ovarian
786-0 renal = tested on: 786-0 renal
MOLT-4 leukemia = tested on: MOLT-4 leukemia
T-47D breast = tested on: T-47D breast
SK-MEL-2 melanoma = tested on: SK-MEL-2 melanoma
NCI-H460 lung = tested on: NCI-H460 lung
NCI/ADR-RES ovarian = tested on: NCI/ADR-RES ovarian
TK-10 renal = tested on: TK-10 renal
NCI-H522 lung = tested on: NCI-H522 lung
UACC-62 melanoma = tested on: UACC-62 melanoma
MDA-MB-435 = tested on: MDA-MB-435
IGROV1 ovarian = tested on: IGROV1 ovarian
SF-268 CNS = tested on: SF-268 CNS
PC-3 prostate = tested on: PC-3 prostate
HT29 colon = tested on: HT29 colon
LOX IMVI melanoma = tested on: LOX IMVI melanoma
SN12C renal = tested on: SN12C renal
A549 NSCLC = tested on: A549 NSCLC
MDA-MB-231 breast = tested on: MDA-MB-231 breast
DU-145 prostate = tested on: DU-145 prostate
U251 CNS = tested on: U251 CNS
SF-295 CNS = tested on: SF-295 CNS
UACC-257 melanoma = tested on: UACC-257 melanoma
OVCAR-4 ovarian = tested on: OVCAR-4 ovarian
ACHN renal = tested on: ACHN renal
HOP-62 NSCLC = tested on: HOP-62 NSCLC
CCRF-CEM leukemia = tested on: CCRF-CEM leukemia
BT-549 breast = tested on: BT-549 breast
SNB-19 CNS = tested on: SNB-19 CNS
EKVX NSCLC = tested on: EKVX NSCLC
HCT-15 colon = tested on: HCT-15 colon
SW-620 colon = tested on: SW-620 colon
NCI-H226 lung = tested on: NCI-H226 lung
HCT-116 colon = tested on: HCT-116 colon
SK-OV-3 ovarian = tested on: SK-OV-3 ovarian
OVCAR-8 ovarian = tested on: OVCAR-8 ovarian
SK-MEL-28 melanoma = tested on: SK-MEL-28 melanoma
SR leukemia = tested on: SR leukemia
M14 melanoma = tested on: M14 melanoma
SK-MEL-5 melanoma = tested on: SK-MEL-5 melanoma
OVCAR-5 ovarian = tested on: OVCAR-5 ovarian
CAKI-1 renal = tested on: CAKI-1 renal
HOP-92 NSCLC = tested on: HOP-92 NSCLC
HCC-2998 colon = tested on: HCC-2998 colon
NCI-H23 lung = tested on: NCI-H23 lung
SNB-75 CNS = tested on: SNB-75 CNS
RXF 393 renal = tested on: RXF 393 renal
UO-31 renal = tested on: UO-31 renal
COLO 205 colon = tested on: COLO 205 colon
A498 renal = tested on: A498 renal
MCF7 breast = tested on: MCF7 breast
SF-539 CNS = tested on: SF-539 CNS
RPMI-8226 leukemia = tested on: RPMI-8226 leukemia
HS 578T breast = tested on: HS 578T breast

## CN(Cc1ccccc1)c1ccc(CO)c(Cl)c1
MALME-3M melanoma
  GI50: 79 µM
  TGI: > 100 µM
K-562 leukemia
  GI50: 9.81 µM
  TGI: > 100 µM
HL-60(TB) leukemia
  GI50: 17.4 µM
  TGI: 80 µM
KM12 colon
  GI50: 22.6 µM
  TGI: > 86.5 µM
OVCAR-3 ovarian
  GI50: 3.36 µM
  TGI: 12.9 µM
786-0 renal
  GI50: 15.7 µM
  TGI: > 100 µM
MOLT-4 leukemia
  GI50: 26.4 µM
  TGI: > 82.6 µM
T-47D breast
  GI50: 0.857 µM
  TGI: 5.45 µM
SK-MEL-2 melanoma
  GI50: 8.78 µM
  TGI: 49.2 µM
NCI-H460 lung
  GI50: 1.72 µM
  TGI: 14.6 µM
NCI/ADR-RES ovarian
  GI50: 18.9 µM
  TGI: 72.6 µM
TK-10 renal
  GI50: 0.225 µM
  TGI: 1.01 µM
NCI-H522 lung
  GI50: 29 µM
  TGI: > 100 µM
UACC-62 melanoma
  GI50: 0.384 µM
  TGI: 3.93 µM
MDA-MB-435
  GI50: 17.6 µM
  TGI: 59.2 µM
IGROV1 ovarian
  GI50: 0.467 µM
  TGI: 3.01 µM
SF-268 CNS
  GI50: 47.2 µM
  TGI: > 100 µM
PC-3 prostate
  GI50: 28.6 µM
  TGI: > 100 µM
HT29 colon
  GI50: 9.63 µM
  TGI: > 81.4 µM
LOX IMVI melanoma
  GI50: 45.8 µM
  TGI: > 100 µM
SN12C renal
  GI50: 31.8 µM
  TGI: > 100 µM
A549 NSCLC
  GI50: 4.74 µM
  TGI: 32.5 µM
MDA-MB-231 breast
  GI50: 34.1 µM
  TGI: > 100 µM
DU-145 prostate
  GI50: 27.8 µM
  TGI: > 100 µM
U251 CNS
  GI50: 4.55 µM
  TGI: > 90.8 µM
SF-295 CNS
  GI50: 4.25 µM
  TGI: > 76.8 µM
UACC-257 melanoma
  GI50: 0.432 µM
  TGI: 1.69 µM
OVCAR-4 ovarian
  GI50: 2.54 µM
  TGI: 43.6 µM
ACHN renal
  GI50: 57.2 µM
  TGI: > 100 µM
HOP-62 NSCLC
  GI50: 6.41 µM
  TGI: > 58.6 µM
CCRF-CEM leukemia
  GI50: 32.5 µM
  TGI: > 100 µM
BT-549 breast
  GI50: 21.1 µM
  TGI: > 100 µM
SNB-19 CNS
  GI50: > 84.3 µM
  TGI: > 100 µM
EKVX NSCLC
  GI50: 22 µM
  TGI: 98.8 µM
HCT-15 colon
  GI50: 25.3 µM
  TGI: > 100 µM
SW-620 colon
  GI50: 7.98 µM
  TGI: > 100 µM
NCI-H226 lung
  GI50: 0.142 µM
  TGI: 0.324 µM
HCT-116 colon
  GI50: 0.533 µM
  TGI: 15.1 µM
SK-OV-3 ovarian
  GI50: 8.99 µM
  TGI: 52 µM
OVCAR-8 ovarian
  GI50: 20.7 µM
  TGI: > 100 µM
SK-MEL-28 melanoma
  GI50: 50.5 µM
  TGI: > 100 µM
SR leukemia
  GI50: 19 µM
  TGI: > 86.6 µM
M14 melanoma
  GI50: 29 µM
  TGI: > 100 µM
SK-MEL-5 melanoma
  GI50: 13.6 µM
  TGI: 37.5 µM
OVCAR-5 ovarian
  GI50: 0.595 µM
  TGI: 3.08 µM
CAKI-1 renal
  GI50: 2.93 µM
  TGI: 50.9 µM
HOP-92 NSCLC
  GI50: 3.9 µM
  TGI: 37.4 µM
HCC-2998 colon
  GI50: 13 µM
  TGI: 51.9 µM
NCI-H23 lung
  GI50: 17.9 µM
  TGI: > 100 µM
SNB-75 CNS
  GI50: 22.4 µM
  TGI: > 80.7 µM
RXF 393 renal
  GI50: 13.1 µM
  TGI: > 60.9 µM
UO-31 renal
  GI50: 15 µM
  TGI: > 100 µM
COLO 205 colon
  GI50: 7.19 µM
  TGI: 22.5 µM
A498 renal
  GI50: 0.0652 µM
  TGI: 0.212 µM
MCF7 breast
  GI50: 1.49 µM
  TGI: 40.3 µM
SF-539 CNS
  GI50: 61.3 µM
  TGI: > 100 µM
RPMI-8226 leukemia
  GI50: 15.4 µM
  TGI: > 96.2 µM
HS 578T breast
  GI50: 35.2 µM
  TGI: > 100 µM

## CCN(CC)CCCNCc1cc(-c2ccccc2)nc2ccccc12
MALME-3M melanoma
  GI50: 7.2 µM
  TGI: 24.3 µM
K-562 leukemia
  GI50: 5.63 µM
  TGI: 22.1 µM
HL-60(TB) leukemia
  GI50: 1.62 µM
  TGI: 14.9 µM
KM12 colon
  GI50: 15 µM
  TGI: > 100 µM
OVCAR-3 ovarian
  GI50: 4.13 µM
  TGI: > 100 µM
786-0 renal
  GI50: 11.1 µM
  TGI: 28.3 µM
MOLT-4 leukemia
  GI50: 0.751 µM
  TGI: > 100 µM
T-47D breast
  GI50: 10.2 µM
  TGI: 59.6 µM
SK-MEL-2 melanoma
  GI50: 10.2 µM
  TGI: 22.9 µM
NCI-H460 lung
  GI50: 33.2 µM
  TGI: > 100 µM
NCI/ADR-RES ovarian
  GI50: 2.35 µM
  TGI: 6.51 µM
TK-10 renal
  GI50: 5.09 µM
  TGI: 31.8 µM
NCI-H522 lung
  GI50: 15.9 µM
  TGI: 52.3 µM
UACC-62 melanoma
  GI50: 2.55 µM
  TGI: 8.37 µM
MDA-MB-435
  GI50: 4.47 µM
  TGI: 24.3 µM
IGROV1 ovarian
  GI50: 23.1 µM
  TGI: > 100 µM
SF-268 CNS
  GI50: 4.72 µM
  TGI: > 100 µM
PC-3 prostate
  GI50: 11.2 µM
  TGI: > 100 µM
HT29 colon
  GI50: 2.77 µM
  TGI: 10.6 µM
LOX IMVI melanoma
  GI50: 2.32 µM
  TGI: 11.4 µM
SN12C renal
  GI50: 4.52 µM
  TGI: > 100 µM
A549 NSCLC
  GI50: 81.6 µM
  TGI: > 100 µM
MDA-MB-231 breast
  GI50: 3.99 µM
  TGI: 24 µM
DU-145 prostate
  GI50: 21.2 µM
  TGI: > 100 µM
U251 CNS
  GI50: 4.16 µM
  TGI: 19.4 µM
SF-295 CNS
  GI50: 16.5 µM
  TGI: 44.7 µM
UACC-257 melanoma
  GI50: 5.11 µM
  TGI: 18.3 µM
OVCAR-4 ovarian
  GI50: 6.91 µM
  TGI: > 100 µM
ACHN renal
  GI50: 33.3 µM
  TGI: > 100 µM
HOP-62 NSCLC
  GI50: 8.27 µM
  TGI: > 100 µM
CCRF-CEM leukemia
  GI50: 2.22 µM
  TGI: > 100 µM
BT-549 breast
  GI50: 3.77 µM
  TGI: 15.9 µM
SNB-19 CNS
  GI50: 14.2 µM
  TGI: > 100 µM
EKVX NSCLC
  GI50: 89.2 µM
  TGI: > 100 µM
HCT-15 colon
  GI50: 3.24 µM
  TGI: 45.8 µM
SW-620 colon
  GI50: 2.75 µM
  TGI: 21.9 µM
NCI-H226 lung
  GI50: 19.8 µM
  TGI: > 100 µM
HCT-116 colon
  GI50: 0.352 µM
  TGI: 17.9 µM
SK-OV-3 ovarian
  GI50: 52.1 µM
  TGI: > 100 µM
OVCAR-8 ovarian
  GI50: 3.21 µM
  TGI: 10.6 µM
SK-MEL-28 melanoma
  GI50: 10.2 µM
  TGI: 22.4 µM
SR leukemia
  GI50: 0.348 µM
  TGI: 13.1 µM
M14 melanoma
  GI50: 4.63 µM
  TGI: 14.4 µM
SK-MEL-5 melanoma
  GI50: 5.49 µM
  TGI: 18.7 µM
OVCAR-5 ovarian
  GI50: 37.9 µM
  TGI: > 100 µM
CAKI-1 renal
  GI50: 19.5 µM
  TGI: > 100 µM
HOP-92 NSCLC
  GI50: 2.34 µM
  TGI: 9.41 µM
HCC-2998 colon
  GI50: 14.9 µM
  TGI: 31.1 µM
NCI-H23 lung
  GI50: 6.07 µM
  TGI: 85.2 µM
SNB-75 CNS
  GI50: 12.3 µM
  TGI: 35.8 µM
RXF 393 renal
  GI50: 6.99 µM
  TGI: 39.9 µM
UO-31 renal
  GI50: 3.96 µM
  TGI: 50.5 µM
COLO 205 colon
  GI50: 15.8 µM
  TGI: 31.3 µM
A498 renal
  GI50: 12.3 µM
  TGI: 41.3 µM
MCF7 breast
  GI50: 4.12 µM
  TGI: 16.9 µM
SF-539 CNS
  GI50: 3.24 µM
  TGI: 8.49 µM
RPMI-8226 leukemia
  GI50: 2.53 µM
  TGI: 16.5 µM
HS 578T breast
  GI50: 16.8 µM
  TGI: > 100 µM
